According to US20130123201A1, “MODULATION OF CYTOKINE-INDUCED CHRONIC INFLAMMATORY RESPONSES” (UNIVERSITY OF MANITOBA, priority 2010, published 2013):
Values joined by “and” are separate entries in the source; they are usually repeats but may differ in a detail not shown here. Equal entries are not always repeated.

Columns and labels:
[1] = test system: Human macrophage-like THP-1 cells; assay: Kinome profiling with peptide arrays of kinase phosphorylation targets; assay type: cell-based; details: cytokine 20 ng/mL, 15 min, relative to un-stimulated control cells
Experimental: Kinome profiling: Human monocytic THP-1 cells were differentiated to plastic-adherent macrophage-like cells by treatment with PMA as described above, the cells were rested for 24 hr and then stimulated with either IL-32 (20 ng/mL) or IL-17 (20 ng/mL) for 15 min.
Subsequently, cellular lysates were prepared in lysis buffer (containing 20 mM Tris-HCl pH 7.5, 150 mM NaCl, 1 mM EDTA, 1 mM EGTA, 1 mM sodium fluoride, 1 mM sodium orthovanadate, 2.5 mM sodium pyrophosphate, protease inhibitor cocktail (Sigma-Aldrich) and 1% (v/v) Triton X-100, as taught by Jalal et al. (2009, Genome to kinome: species-specific peptide arrays for kinome analysis. Sci. Signal 2:11). Peptide arrays representing phosphorylation targets of kinase activity were incubated with the cellular lysates for quantifying global kinase activity following the methods disclosed by Jalal et al. (2009). The trends of protein phosphorylation events upon stimulation with IL-32 and IL-17 were comprehensively analysed after normalization and background correction of signal strength following the methods disclosed by Jalal et al. (2009). The phosphorylations of the peptides on the array were quantitated in the cytokine-treated cells relative to the un-stimulated control cells.
Kinome profiling: Human macrophage-like THP-1 cells were differentiated to plastic-adherent macrophage-like cells by treatment with PMA as described above, after which the cells were rested for 24 hr and then stimulated with either IL-32 (20 ng/mL) or IL-17 (20 ng/mL) for 15 min. Subsequently, cellular lysates were prepared in lysis buffer (containing 20mM Tris-HCl pH 7.5, 150 mM NaCl, 1 mM EDTA, 1 mM EGTA, 1 mM sodium fluoride, 1 mM sodium orthovanadate, 2.5 mM sodium pyrophosphate, protease inhibitor cocktail (Sigma-Aldrich Canada Inc.) and 1% (v/v) Triton X-100, as taught by Mookherjee et al. (2006). Peptide arrays representing phosphorylation targets of kinase activity were incubated with the cellular lysates for quantifying global kinase activity as taught by Jalal et al. (2009, Genome to kinome: species-specific peptide arrays for kinome analysis. Sci. Signal 2:11). The trends of protein phosphorylation events upon stimulation with IL-32 and IL-17 were comprehensively analysed after normalization and background correction of signal strength as taught by Jalal et al. (2009). The phosphorylations of the peptides on the array were quantitated in the cytokine-treated cells relative to the un-stimulated control cells.
Differential phosphorylation events in THP-1 cells stimulated by IL-32 and IL-17: THP-1 cells were stimulated with either IL-17 (20 ng/ml) or IL-32 (20 ng/ml) for 15 min. The cellular lysates were incubated with peptide arrays representing phosphorylation targets of kinase activity for quantifying global kinase activity as previously described. The phosphorylation of the peptides on the array were quantitated in the cytokine-treated cells relative to the un-stimulated control cells after normalization and background correction of signal strength taught by Jalal et al. (2009).

[2] = test system: NF-κB subunits p50 and p65; assay: Translocation of NF-κB subunits p50 and p65 (nuclear extract immunoblots); assay type: cell-based, human; details: 20 ng/mL, 30 mins
Experimental: Translocation of NF-κB subunits p50 and p65: Nuclear extracts were prepared employing NE-PER® extraction reagents (Thermo Fisher Scientific, Toronto, ON, Canada) as per the manufacturer's instructions. In order to monitor direct NF-κB activation, equivalent nuclear extracts (5-8 μg) were resolved on 4-12% NuPAGE® Bis-Tris gels (Invitrogen Canada Inc.) and transferred to nitrocellulose membranes. The membranes were blocked with TBST containing 3% fish skin gelatin (Sigma-Aldrich), and probed with antibodies specific for either NE-κB subunit p50 or p65, in TBST containing 1% fish gelatin. The membranes were also probed with antibody to human histone protein HADC-1 to assess the equivalent protein loading. […]
The presence of common targets in macrophages was supported by the observation that both IL-32 and IL-17 induced similar level of IL-23 mRNA expression (FIG. 8A) and chemokine IL-8 production in human macrophage-like THP-1 cells (FIG. 7C). […] Therefore to further evaluate similarity of induced downstream response in synovial fibroblasts, this study analyzed the direct activation of transcription factor NF-κB. […] We also monitored the activity of NF-κB using a luminescence assay in-vitro employing rabbit synovial fibroblast cell line (HIG-82) in the presence of IL-32 and IL-17. The activation of NF-κB was monitored after 4 and 6 hr of treatment. […]

IL-17: Recombinant human cytokine IL-17A/F from eBioscience, used as stimulant
Relative Fold change in phosphorylation, APE1 (P27695) S289 [1]: 1.52 fold and 1.28 fold
Relative Fold change in phosphorylation, Akt1 (P31749) S124/9 [1]: −3.27 fold
Relative Fold change in phosphorylation, CCR5 (P51681) S336/7 [1]: −2.62 fold
Relative Fold change in phosphorylation, CTNNB1 (P35222) T41/45 [1]: −4.12 fold
Relative Fold change in phosphorylation, DAPK1 (P53355) S308 [1]: 2.19 fold and 1.45 fold
Relative Fold change in phosphorylation, Daxx (Q9UER7) S668/71 [1]: −3.45 fold
Relative Fold change in phosphorylation, Grb10 (Q13322) S150 [1]: −1.86 fold
Relative Fold change in phosphorylation, Kit (P10721) Y721 [1]: −1.75 fold
Relative Fold change in phosphorylation, NFAT4 (Q12968) S163/5 [1]: −2.22 fold
Relative Fold change in phosphorylation, PKACa (P17612) S338 [1]: −1.64 fold
Relative Fold change in phosphorylation, STAT6 (P42226) Y641 [1]: −1.94 fold
Relative Fold change in phosphorylation, Smad3 (P84022) S422/3/5 [1]: −2.37 fold
Relative Fold change in phosphorylation, TAK1 (O43318) T184 [1]: −2.01 fold
Relative Fold change in phosphorylation, axin-1 (O15169) S486 [1]: −3.73 fold
Relative Fold change in phosphorylation, p53 (P04637) S6/9 [1]: −2.43 fold
Relative Fold change in phosphorylation, p300 (Q09472) S1834 [1]: 1.92 fold and 1.71 fold
Nuclear translocation of NF-κB p50 ([2]; FLS cells and macrophage-like THP-1 cells): mediated nuclear translocation
Nuclear translocation of NF-κB subunit p65 ([2]; FLS cells and macrophages): mediated
